Results: patent US20250207131A1, “MODIFIED RNA AGENTS WITH REDUCED OFF-TARGET EFFECT” (Alnylam Pharmaceuticals, Inc., priority 2018, published 2025)
[UNA] = unlocked nucleic acid; d = 2'-deoxy (DNA); r = 2'-OH (RNA); f = 2'-fluoro

Columns and labels:
[1] = UV thermal melting temperatures of mUNA 12-mer duplexes; format: physicochemical; conditions: for ΔTm (° C.): relative to unmodified duplex; for Tm (° C.)a / Tm (° C.)b: mUNA 12-mer duplexes, 2.0 μM each strand, pH 7.4
Source text: (§1) Values were reported as the maximum of the first derivative and are the average of at least two experiments.

[2] = UV thermal melting temperatures of TNA 12-mer duplexes; format: physicochemical; conditions: 1×PBS; for ΔTm (° C.): relative to unmodified duplex; for Tm (° C.): TNA 12-mer duplexes, 2.0 μM each strand, pH 7.4
Source text: Values were reported as the maximum of the first derivative and are the average of at least two experiments. […] The structures x and y are shown here:
as §1

| Substance | ΔTm (° C.) ([1]; 1x PBS) [°C] | ΔTm (° C.) ([1]; 8×PBS) [°C] | Tm (° C.)a ([1]; 1x PBS) [°C] | Tm (° C.)b ([1]; 8×PBS) [°C] | ΔTm (° C.) [2] [°C] | Tm (° C.) [2] [°C] |
| --- | --- | --- | --- | --- | --- | --- |
| AD-64366.2 (sense UACAGUCUAUGU; antisense ACAUAGACUGUA; RNA, backbone not given here) | 0.0 | 0.0 | 52.1 | 61.1 |  |  |
| AD-64366.3 (sense UACAGUCUAUGU; antisense ACAUAGACUGUA; RNA, backbone not given here) |  |  |  |  | 0 | 52.57 |
| AD-64366.4 (sense UACAGUCUAUGU; antisense ACAUAGACUGUA; RNA, backbone not given here) |  |  |  |  | 0 | 52.62 |
| AD-64367.2 (sense TACAGTCTATGT; antisense ACATAGACTGTA; DNA, backbone not given here) |  | 0.0 | 43.1 | 49.1 |  |  |
| AD-64367.3 (sense TACAGTCTATGT; antisense ACATAGACTGTA; DNA, backbone not given here) |  |  |  |  | 0 | 42.42 |
| AD-64367.4 (sense TACAGTCTATGT; antisense ACATAGACTGTA; DNA, backbone not given here) |  |  |  |  | 0 | 42.67 |
| AD-64980.2 (sense UACAGUCUAUGU; antisense ACAUAGACUGUA; siRNA; one 2'-fluoro U in sense strand, plain letters not given here, further chemistry not given here) |  |  |  |  | 0.52 | 53.14 |
| AD-64981.2 (sense TACAGUCTATGT; antisense ACATAGACTGTA; siRNA; sense: sugars from the 5' end d5 f1 d6, backbone not given here; antisense: DNA, backbone not given here) |  |  |  |  | −2.615 | 40.055 |
| AD-72585.2 (sense UACAGTCUAUGU; antisense ACAUAGACUGUA; siRNA; one TNA thymine in sense strand, plain letters not given here, further chemistry not given here) |  |  |  |  | −4.825 | 47.745 |
| AD-72586.2 (sense TACAGTCTATGT; antisense ACATAGACTGTA; siRNA; chemistry not fully specified) |  |  |  |  | 2.1 | 40.32 |
| AD-72587.2 (sense UACAGUCUAUGU; antisense ACAUAGACUGUA; siRNA; one TNA cytidine in sense strand, plain letters not given here, further chemistry not given here) |  |  |  |  | −5.45 | 47.12 |
| AD-511227.1 (sense UACAGUCUAUGU; antisense ACAUAGACUGUA; sense: sugars from the 5' end r5 [UNA]1 r6, backbone not given here; antisense: RNA, backbone not given here) | −16.6 | −17.5 | 35.5 | 43.6 |  |  |
| AD-511236.1 (sense TACAGUCTATGT; antisense ACATAGACTGTA; sense: chemistry not given here; antisense: DNA, backbone not given here; sense strand has one mUNA-type uridine (Uun)) |  | −25.5 | <30 | 23.6 |  |  |
| AD-511237.1 (sense UACAGUCUAUGU; antisense ACATAGACTGTA; sense: RNA, backbone not given here; antisense: DNA, backbone not given here) |  | 0.0 | 39.1 | 45.1 |  |  |
| AD-511246.1 (sense UACAGUCUAUGU; antisense ACATAGACTGTA; sense: chemistry not given here; antisense: DNA, backbone not given here; sense strand has one mUNA-type uridine (Uun)) |  | −20.5 | <30 | 24.6 |  |  |
| AD-511247.1 (sense TACAGTCTATGT; antisense ACAUAGACUGUA; sense: DNA, backbone not given here; antisense: RNA, backbone not given here) |  | 0.0 | 42.1 | 49.1 |  |  |
| AD-511256.1 (sense TACAGUCTATGT; antisense ACAUAGACUGUA; sense: chemistry not given here; antisense: RNA, backbone not given here; sense strand has one mUNA-type uridine (Uun)) |  | −20.6 | <30 | 28.6 |  |  |

| Substance | ΔTm (° C.) ([1]; 1x PBS) [°C] | ΔTm (° C.) ([1]; 8×PBS) [°C] | Tm (° C.)a ([1]; 1x PBS) [°C] | Tm (° C.)b ([1]; 8×PBS) [°C] | ΔTm (° C.) [2] [°C] | Tm (° C.) [2] [°C] |
| --- | --- | --- | --- | --- | --- | --- |
| AD-649408.1 (sense UACAGUCUAUGU; antisense ACAUAGACUGUA; chemistry not fully specified) |  |  |  |  | −4.5 | 48.07 |
| AD-649409.1 (sense UACAGUCUAUGU; antisense ACAUAGACUGUA; chemistry not fully specified) |  |  |  |  | −4.9 | 47.67 |
| AD-649411.1 (sense UACAGUCUAUGU; antisense ACAUAGACUGUA; chemistry not fully specified) |  |  |  |  | −11 | 41.57 |
| AD-649412.1 (sense UACAGUCUAUGU; antisense ACAUAGACUGUA; sense: RNA, backbone not given here; antisense: chemistry not given here; further chemistry not fully specified) |  |  |  |  | 0.55 | 53.17 |
| AD-649414.1 (sense UACAGUCUAUGU; antisense ACAUAGACUGUA; chemistry not fully specified) |  |  |  |  | 0.45 | 53.07 |
| AD-649415.1 (sense UACAGUCUAUGU; antisense ACAUAGACUGUA; sense: sugars from the 5' end r5 f1 r6, backbone not given here; antisense: sugars from the 5' end r6 f1 r5, backbone not given here) |  |  |  |  | 1.6 | 54.22 |
| AD-649416.1 (sense UACAGUCUAUGU; antisense ACAUAGACUGUA; sense: RNA, backbone not given here; antisense: sugars from the 5' end r5 f1 r6, backbone not given here) |  |  |  |  | 2.7 | 55.32 |
| AD-649417.1 (sense TACAGTCTATGT; antisense ACATAGACTGTA; chemistry not fully specified) |  |  |  |  | 0.65 | 43.07 |
| AD-649418.1 (sense TACAGTCTATGT; antisense ACATAGACTGTA; sense: chemistry not given here; antisense: DNA, backbone not given here; further chemistry not fully specified) |  |  |  |  | −1.78 | 40.64 |
| AD-649419.1 (sense TACAGTCTATGT; antisense ACATAGACTGTA; chemistry not fully specified) |  |  |  |  | 1.8 | 44.22 |
| AD-649420.1 (sense TACAGTCTATGT; antisense ACATAGACTGTA; chemistry not fully specified) |  |  |  |  | −2.5 | 39.92 |
| AD-649421.1 (sense TACAGTCTATGT; antisense ACATAGACTGTA; chemistry not fully specified) |  |  |  |  | −2.365 | 40.055 |
| AD-649422.1 (sense TACAGTCTATGT; antisense ACATAGACTGTA; sense: DNA, backbone not given here; antisense: sugars from the 5' end d6 f1 d5, backbone not given here) |  |  |  |  | −0.4 | 42.27 |
| AD-649423.1 (sense TACAGTCTATGT; antisense ACATAGACTGTA; sense: sugars from the 5' end d6 f1 d5, backbone not given here; antisense: DNA, backbone not given here) |  |  |  |  | −0.325 | 42.345 |
| AD-649424.1 (sense TACAGTCTATGT; antisense ACATAGACTGTA; sense: DNA, backbone not given here; antisense: sugars from the 5' end d5 f1 d6, backbone not given here) |  |  |  |  | 0.275 | 42.945 |
| AD-649425.1 (sense TACAGUCTATGT; antisense ACATAGACTGTA; sense: sugars from the 5' end d5 f1 d6, backbone not given here; antisense: sugars from the 5' end d6 f1 d5, backbone not given here) |  |  |  |  | −2.5 | 40.17 |
| AD-649426.1 (sense TACAGTCTATGT; antisense ACATAGACTGTA; sense: sugars from the 5' end d6 f1 d5, backbone not given here; antisense: sugars from the 5' end d5 f1 d6, backbone not given here) |  |  |  |  | 0.1 | 42.77 |
